Several values for one entry are separate records, joined by “and”; a condition that tells them apart may be missing. Equal values may be shown once.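 GI50 is the concentration that inhibits growth by half. Definition used: TGI = concentration required for complete inhibition of growth.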
Columns and labels:
Assay in all cases: inhibition of tumour cell growth, NCI panel, 384-well format
COLO 205 colon = tested on: COLO 205 colon
HCT-15 colon = tested on: HCT-15 colon
OVCAR-4 ovarian = tested on: OVCAR-4 ovarian
SK-MEL-2 melanoma = tested on: SK-MEL-2 melanoma
HL-60(TB) leukemia = tested on: HL-60(TB) leukemia
HCT-116 colon = tested on: HCT-116 colon
MDA-MB-435 melanoma = tested on: MDA-MB-435 melanoma
OVCAR-8 ovarian = tested on: OVCAR-8 ovarian
A498 renal = tested on: A498 renal
MOLT-4 leukemia = tested on: MOLT-4 leukemia
786-0 renal = tested on: 786-0 renal
UACC-257 melanoma = tested on: UACC-257 melanoma
NCI-H322M lung = tested on: NCI-H322M lung
OVCAR-5 ovarian = tested on: OVCAR-5 ovarian
MCF7 breast = tested on: MCF7 breast
MDA-MB-231 breast = tested on: MDA-MB-231 breast
SR leukemia = tested on: SR leukemia
EKVX NSCLC = tested on: EKVX NSCLC
IGROV1 ovarian = tested on: IGROV1 ovarian
ACHN renal = tested on: ACHN renal
UACC-62 melanoma = tested on: UACC-62 melanoma
HCC-2998 colon = tested on: HCC-2998 colon
U251 glioblastoma = tested on: U251 glioblastoma
KM12 colon = tested on: KM12 colon
RXF 393 renal = tested on: RXF 393 renal
M14 melanoma = tested on: M14 melanoma
SK-OV-3 ovarian = tested on: SK-OV-3 ovarian
CAKI-1 renal = tested on: CAKI-1 renal
HT29 colon = tested on: HT29 colon
SW-620 colon = tested on: SW-620 colon
SK-MEL-5 melanoma = tested on: SK-MEL-5 melanoma
TK-10 renal = tested on: TK-10 renal
A549 NSCLC = tested on: A549 NSCLC
SNB-75 CNS = tested on: SNB-75 CNS
SN12C renal = tested on: SN12C renal
LOX IMVI melanoma = tested on: LOX IMVI melanoma
SF-539 CNS = tested on: SF-539 CNS
SK-MEL-28 melanoma = tested on: SK-MEL-28 melanoma
DU-145 prostate = tested on: DU-145 prostate
BT-549 breast = tested on: BT-549 breast
NCI-H226 lung = tested on: NCI-H226 lung
MALME-3M melanoma = tested on: MALME-3M melanoma
SF-295 CNS = tested on: SF-295 CNS
SF-268 CNS = tested on: SF-268 CNS
OVCAR-3 ovarian = tested on: OVCAR-3 ovarian
HS 578T breast = tested on: HS 578T breast
T-47D breast = tested on: T-47D breast
SNB-19 CNS = tested on: SNB-19 CNS
NCI-H522 lung = tested on: NCI-H522 lung
MDA-MB-468 breast = tested on: MDA-MB-468 breast
K-562 leukemia = tested on: K-562 leukemia
RPMI-8226 leukemia = tested on: RPMI-8226 leukemia
CCRF-CEM leukemia = tested on: CCRF-CEM leukemia
NCI/ADR-RES ovarian = tested on: NCI/ADR-RES ovarian
NCI-H23 lung = tested on: NCI-H23 lung
NCI-H460 NSCLC = tested on: NCI-H460 NSCLC
HOP-92 NSCLC = tested on: HOP-92 NSCLC
PC-3 prostate = tested on: PC-3 prostate
HOP-62 NSCLC = tested on: HOP-62 NSCLC
UO-31 renal = tested on: UO-31 renal

Compound: COc1c(OCCCN2CCOCC2)ccc2c3n(c(=NC(=O)c4cnc(N)nc4)nc12)CCN3
- GI50 (COLO 205 colon): 26.9 nM and 48.5 nM
- TGI (COLO 205 colon): 3670 nM and 3440 nM
- GI50 (HCT-15 colon): 47.8 nM and 78.3 nM
- TGI (HCT-15 colon): > 50000 nM
- GI50 (OVCAR-4 ovarian): 419 nM and 388 nM
- TGI (OVCAR-4 ovarian): 15700 nM and 3430 nM
- GI50 (SK-MEL-2 melanoma): 224 nM
- TGI (SK-MEL-2 melanoma): 7360 nM
- GI50 (HL-60(TB) leukemia): < 5 nM
- GI50 (HCT-116 colon): 101 nM and 163 nM
- TGI (HCT-116 colon): > 50000 nM
- GI50 (MDA-MB-435 melanoma): 237 nM
- TGI (MDA-MB-435 melanoma): > 100000 nM
- GI50 (OVCAR-8 ovarian): 118 nM and 219 nM
- TGI (OVCAR-8 ovarian): > 50000 nM
- GI50 (A498 renal): 53.9 nM and 68.3 nM
- TGI (A498 renal): 146 nM and 470 nM
- GI50 (MOLT-4 leukemia): 17.3 nM and < 11.8 nM
- TGI (MOLT-4 leukemia): 101 nM and 38.5 nM
- GI50 ([…]-0 renal): 177 nM and 242 nM
- TGI (786-0 renal): 14000 nM
- GI50 (UACC-257 melanoma): 172 nM and 201 nM
- TGI (UACC-257 melanoma): 10300 nM and 3800 nM
- GI50 (NCI-H322M lung): 93.3 nM and 38.9 nM
- GI50 (OVCAR-5 ovarian): 51.9 nM and 152 nM
- TGI (OVCAR-5 ovarian): > 100000 nM
- GI50 (MCF7 breast): < 5 nM
- TGI (MCF7 breast): > 50000 nM
- GI50 (MDA-MB-231 breast): 1960 nM and 219 nM
- GI50 (SR leukemia): 215 nM and 198 nM
- TGI (SR leukemia): 3020 nM and 714 nM
- GI50 (EKVX NSCLC): 22 nM and 56.8 nM
- TGI (EKVX NSCLC): 289 nM and 1160 nM
- GI50 (IGROV1 ovarian): < 5 nM
- TGI (IGROV1 ovarian): 16.5 nM and 29.9 nM
- GI50 (ACHN renal): 26.6 nM and 108 nM
- GI50 (UACC-62 melanoma): 82 nM and 84.4 nM
- TGI (UACC-62 melanoma): 237 nM and 362 nM
- GI50 (HCC-2998 colon): 82.3 nM and 138 nM
- TGI (HCC-2998 colon): 5440 nM and 766 nM
- GI50 (U251 glioblastoma): 314 nM and 510 nM
- TGI (U251 glioblastoma): > 100000 nM
- GI50 (KM12 colon): 436 nM and 316 nM
- TGI (KM12 colon): > 100000 nM
- GI50 (RXF 393 renal): 174 nM and 47 nM
- TGI (RXF 393 renal): 611 nM and 162 nM
- GI50 (M14 melanoma): 190 nM and 158 nM
- TGI (M14 melanoma): > 50000 nM
- GI50 (SK-OV-3 ovarian): 10.1 nM
- TGI (SK-OV-3 ovarian): 63.7 nM
- GI50 (CAKI-1 renal): 27 nM and 72.4 nM
- TGI (CAKI-1 renal): 317 nM
- GI50 (HT29 colon): 22.9 nM
- TGI (HT29 colon): > 50000 nM
- GI50 (SW-620 colon): 270 nM and 656 nM
- TGI (SW-620 colon): > 100000 nM
- GI50 (SK-MEL-5 melanoma): 69.8 nM and 95.1 nM
- TGI (SK-MEL-5 melanoma): 197 nM and 431 nM
- GI50 (TK-10 renal): 22.8 nM and 28 nM
- TGI (TK-10 renal): 583 nM and 612 nM
- GI50 (A549 NSCLC): 67.7 nM and 54.1 nM
- TGI (A549 NSCLC): 849 nM and 908 nM
- GI50 (SNB-75 CNS): 7.16 nM and < 13.2 nM
- TGI (SNB-75 CNS): 31.7 nM and 81.4 nM
- GI50 (SN12C renal): 77.7 nM
- TGI (SN12C renal): > 50000 nM
- GI50 (LOX IMVI melanoma): 154 nM
- TGI (LOX IMVI melanoma): 1210 nM
- GI50 (SF-539 CNS): 103 nM and 96.9 nM
- GI50 (SK-MEL-28 melanoma): 71 nM and 56.2 nM
- TGI (SK-MEL-28 melanoma): 2560 nM
- GI50 (DU-145 prostate): 128 nM and 164 nM
- TGI (DU-145 prostate): > 100000 nM
- GI50 (BT-549 breast): 102 nM and 65.3 nM
- TGI (BT-549 breast): 2870 nM and 648 nM
- GI50 (NCI-H226 lung): 160 nM and 90.8 nM
- TGI (NCI-H226 lung): > 50000 nM
- GI50 (MALME-3M melanoma): 74.5 nM and 22.8 nM
- TGI (MALME-3M melanoma): 396 nM and 204 nM
- GI50 (SF-295 CNS): 177 nM and 135 nM
- GI50 (SF-268 CNS): 132 nM and 268 nM
- TGI (SF-268 CNS): 29100 nM
- GI50 (OVCAR-3 ovarian): 69 nM and 43.9 nM
- TGI (OVCAR-3 ovarian): 556 nM and 619 nM
- GI50 (HS 578T breast): 55.7 nM and 30 nM
- TGI (HS 578T breast): 289 nM and 347 nM
- GI50 (T-47D breast): < 5 nM
- TGI (T-47D breast): 25.6 nM and < 10.6 nM
- GI50 (SNB-19 CNS): 572 nM and 1040 nM
- TGI (SNB-19 CNS): > 100000 nM
- GI50 (NCI-H522 lung): 147 nM and 151 nM
- TGI (NCI-H522 lung): > 50000 nM and 5610 nM
- GI50 (MDA-MB-468 breast): 15.3 nM and 20.4 nM
- TGI (MDA-MB-468 breast): 79.7 nM and 138 nM
- GI50 (K-562 leukemia): 2250 nM
- TGI (K-562 leukemia): > 50000 nM
- GI50 (RPMI-8226 leukemia): 129 nM and 122 nM
- TGI (RPMI-8226 leukemia): 441 nM and 285 nM
- GI50 (CCRF-CEM leukemia): 18 nM and 38.6 nM
- TGI (CCRF-CEM leukemia): 5610 nM and 1330 nM
- GI50 (NCI/ADR-RES ovarian): 1970 nM and 424 nM
- TGI (NCI/ADR-RES ovarian): > 100000 nM
- GI50 (NCI-H23 lung): 472 nM and 248 nM
- TGI (NCI-H23 lung): > 50000 nM
- GI50 (NCI-H460 NSCLC): 21.5 nM and 25.9 nM
- TGI (NCI-H460 NSCLC): > 100000 nM
- GI50 (HOP-92 NSCLC): 38.5 nM and 35 nM
- GI50 (PC-3 prostate): 66.8 nM and 34.4 nM
- GI50 (HOP-62 NSCLC): 167 nM and 385 nM
- TGI (HOP-62 NSCLC): > 100000 nM
- GI50 (UO-31 renal): 30.5 nM
- TGI (UO-31 renal): 258 nM

— PubChem BioAssay (NCI)
